These are literature values, as cited in patent US20260000671A1, “CONCENTRATED SOLUTIONS COMPRISING 5,10-METHYLENE-(6R)-TETRAHYDROFOLIC ACID” (Merck Patent GMBH, priority 2022, published 2026).

For the compound `Nc1nc2c(c(=O)[nH]1)N1CN(c3ccc(C(=O)N[C@@H](CCC(=O)O)C(=O)O)cc3)C[C@H]1CN2` [5,10-methylene-(6R,S)-tetrahydrofolic acid], for the setting “24 hours following dissolution in water, % normalized purity”, the “purity 24 hours following dissolution in water” value is reported as 44.9 % of the starting purity. For the setting “following dissolution in water, FIG. 1”, the “stability profile in words” value is “degraded rapidly over time”. Besides, the “purity after 7 hours” value (re-constituted lyophilizate, after 7 hours) was 84%. In addition, under “re-constituted lyophilizate, linear regression of stability profile”, the “purity loss per hour (degradation rate, slope of best-fit line)” value was 2.3 % purity per hour.
